Data as given in patent US6468992B1, “Phosphonic acid diester derivatives” (Otsuka Pharmaceutical Factory, Inc., priority 1998, dated 2002).

The compounds below were run on male Wister rats (assay: blood glucose-lowering activity in dexamethasone-treated rats). Conditions: male Wister rats given dexamethasone 0.5 mg/kg i.p. once a day for 4 days; test compound 100 mg/kg orally daily; serum glucose on day 4, 4 hours after dexamethasone, fasted 24 hours; versus control and normal groups.
Type: in vivo
Procedure: The compounds of the present invention were tested for blood glucose-lowering activities in rats in the following manner.
That is, Dexamethasone (Decadron S injectable solution:made by Banyu Pharmaceutical Co.,Ltd.) was administered intraperitoneally to a group (test group) of 5 male Wister rats (6 weeks old) at a daily dose of 0.5 mg/kg, once a day for 4 days. Immediately after the administration of dexamethasone, a test compound (100 mg/kg) dissolved in 5% gum arabic solution was administered orally to rats daily. On day 4, the rats were decapitated 4 hours after the administration of dexamethasone. Blood was collected and centrifuged (3000 rpm, […], 15 minutes), then the glucose level in the obtained serum was measured by the use of Glucose cII Test Wako (made by Wako Pure Chemical Industries, Ltd.). The rats were maintained on a diet ad libitum and then fasted 24 hours before the collection of blood.
Animals which were given 5% gum arabic solution instead of a test compound were served as a control group and those which were maintained merely on a diet ad libitum were served as a normal group. The serum glucose levels of them were measured according to the same manner as above. The decrease rate of blood glucose level was determined by the value (mean value) of each group from the following equation. [formula]

SMILES	Decrease rate (%) in blood glucose level [%]
CCOP(=O)(CCCC(=O)Nc1cc(Cl)cc(Cl)c1C(=O)NC)OCC [Example 7, diethyl 3-[N-[3,5-dichloro-2-(N-methylcarbamoyl)phenyl]carbamoyl]propylphosphonate]	30
CCOP(=O)(OCC)C(=O)Nc1cc(Cl)ccc1C(=O)NC [Example 51, Diethyl N-[5-chloro-2-(N-methylcarbamoyl)phenyl]carbamoyl phosphonate]	17
CCOP(=O)(CCCC(=O)Nc1c(Cl)cc(Cl)cc1C(=O)NC)OCC [Example 8, diethyl 3-[N-[4,6-dichloro-2-(N-methylcarbamoyl)phenyl]-carbamoyl]propylphosphonate]	39
CCOP(=O)(CCCC(=O)Nc1cccc(Cl)c1C(=O)Nc1ccccc1)OCC [Example 31, diethyl 3-[N-[3-chloro-2-(N-phenylcarbamoyl)phenyl]carbamoyl]propylphosphonate]	59
